{
  "source": "paper PMC6618047",
  "about": "(Clinical Pharmacology in Drug Development, 2018)",
  "key": {"[1]": {"assay": "Summary across the 3 food-effect studies", "assay_type": "in vivo, human"}, "[2]": {"conditions": "cited from earlier work"}, "[3]": {"conditions": "high solubility and high permeability; no reference given; cited from earlier work"}, "[4]": {"conditions": "early phase 1 and 2 studies, no reference given; cited from earlier work"}, "[5]": {"conditions": "for AUC(0-inf) / AUC(0-t) / Cmax / Tmax / half-life: plasma, single oral dose, healthy subjects; for AUC(0-inf): AUCinf; for AUC(0-inf) / AUC(0-t) / Cmax / Tmax / half-life / Fed:Fasted GMR (90% CI) AUCinf / Fed:Fasted GMR (90% CI) Cmax: ertugliflozin 15-mg/sitagliptin 100-mg FDC tablet; for AUC(0-t): AUClast; for Tmax: median (range); for half-life: t1/2, arithmetic mean ± SD; for Fed:Fasted GMR (90% CI) AUCinf / Fed:Fasted GMR (90% CI) Cmax: adjusted geometric mean ratio fed:fasted"}, "[6]": {"conditions": "for AUC(0-inf): AUCinf; for AUC(0-t): AUClast; for Fed:Fasted GMR (90% CI) AUCinf / Fed:Fasted GMR (90% CI) Cmax: adjusted geometric mean ratio fed:fasted"}, "[7]": {"assay": "Food-effect pharmacokinetic study of ertugliflozin 15-mg tablet", "conditions": "for AUC(0-t): AUClast"}, "[8]": {"conditions": "metformin 850 mg alone; cited from earlier work"}, "[9]": {"conditions": "sitagliptin monotherapy, cited from earlier work"}, "[10]": {"conditions": "both, human, po, geometric mean (geometric %CV), fasted"}, "[11]": {"conditions": "both, human, po, geometric mean (geometric %CV), fed (high-fat breakfast)"}, "[12]": {"conditions": "both, human, po, fed (high-fat breakfast)"}, "[13]": {"conditions": "both, human, plasma, po, arithmetic mean ± SD, ertugliflozin 7.5-mg/metformin 1000-mg FDC tablet, single oral dose, healthy subjects, fed (high-fat breakfast)"}, "[14]": {"conditions": "both, human, plasma, po, geometric mean (geometric %CV), ertugliflozin 7.5-mg/metformin 1000-mg FDC tablet, single oral dose, healthy subjects, fasted"}, "[15]": {"conditions": "both, human, plasma, po, geometric mean (geometric %CV), ertugliflozin 7.5-mg/metformin 1000-mg FDC tablet, single oral dose, healthy subjects, fed (high-fat breakfast)"}, "[16]": {"conditions": "ertugliflozin 7.5-mg/metformin 1000-mg FDC tablet"}, "[17]": {"conditions": "ertugliflozin 15-mg tablet, adjusted geometric mean ratio fed:fasted"}},
  "note": "Like-named read-outs stand apart in the source and are kept apart here.",
  "data": [
    {"smiles": "CCOc1ccc(Cc2cc([C@]34OC[C@](CO)(O3)[C@@H](O)[C@H](O)[C@H]4O)ccc2Cl)cc1", "note": "[Ertugliflozin]", "values": [
      {"measurement": "Delay of median Tmax, fed compared with fasted", "setting": "[1]; in all 3 studies", "value": 1, "unit": "h"},
      {"measurement": "Reduction of Cmax, fed compared with fasted", "setting": "[1]; range across the 3 studies", "value": "29%–41%"},
      {"measurement": "Dose proportionality of exposure", "setting": "[2]; dose range of 0.5 to 300 mg", "value": "dose proportional"},
      {"measurement": "median Tmax", "setting": "[2]; phase 1 studies, oral administration, fasted conditions", "value": "0.5 to 1.5", "unit": "h"},
      {"measurement": "terminal elimination half-life (t1/2)", "setting": "[2]; phase 1 studies", "value": "11 to 17", "unit": "h"},
      {"measurement": "Biopharmaceutical Classification System (BCS) class", "setting": "[3]", "value": "class I"},
      {"measurement": "Maximum tolerated dose", "setting": "[4]", "value": "has not been identified"},
      {"measurement": "Decrease of Cmax in the fed state compared with the fasted state", "setting": "[5]; administered as ertugliflozin/sitagliptin FDC, based on adjusted GMR", "value": 30, "unit": "%"},
      {"measurement": "AUC(0-inf)", "setting": "[5]; [10]", "value": 1170, "unit": "ng·h/mL"},
      {"measurement": "AUC(0-inf)", "setting": "[5]; [11]", "value": 1110, "unit": "ng·h/mL"},
      {"measurement": "AUC(0-t)", "setting": "[5]; [10]", "value": 1150, "unit": "ng·h/mL"},
      {"measurement": "AUC(0-t)", "setting": "[5]; [11]", "value": 1090, "unit": "ng·h/mL"},
      {"measurement": "Cmax", "setting": "[5]; both, human, po, Cmax, geometric mean (geometric %CV), fasted", "value": 223, "unit": "ng/mL"},
      {"measurement": "Cmax", "setting": "[5]; both, human, po, Cmax, geometric mean (geometric %CV), fed (high-fat breakfast)", "value": 157, "unit": "ng/mL"},
      {"measurement": "Tmax", "setting": "[5]; [12]", "value": 2, "unit": "h"},
      {"measurement": "half-life", "setting": "[5]; [12]", "value": "11.6 ± 2.3", "unit": "h"},
      {"measurement": "Fed:Fasted GMR (90% CI) AUCinf", "setting": "[5]", "value": "94.6 (91.6–97.8) %"},
      {"measurement": "Fed:Fasted GMR (90% CI) Cmax", "setting": "[5]", "value": "70.5 (63.3–78.4) %"},
      {"measurement": "Decrease of Cmax in the fed state compared with the fasted state", "setting": "[6]; administered as ertugliflozin/metformin FDC, based on adjusted GMR", "value": 41, "unit": "%"},
      {"measurement": "AUC(0-inf)", "setting": "[6]; [13]", "value": "621 ± 168", "unit": "ng·h/mL"},
      {"measurement": "AUC(0-inf)", "setting": "[6]; [14]", "value": 655, "unit": "ng·h/mL"},
      {"measurement": "AUC(0-inf)", "setting": "[6]; [15]", "value": 602, "unit": "ng·h/mL"},
      {"measurement": "AUC(0-t)", "setting": "[6]; [13]", "value": "606 ± 166", "unit": "ng·h/mL"},
      {"measurement": "AUC(0-t)", "setting": "[6]; [14]", "value": 640, "unit": "ng·h/mL"},
      {"measurement": "AUC(0-t)", "setting": "[6]; [15]", "value": 587, "unit": "ng·h/mL"},
      {"measurement": "Cmax", "setting": "[6]; [13]", "value": "82.3 ± 40.7", "unit": "ng/mL"},
      {"measurement": "Cmax", "setting": "[6]; [14]", "value": 126, "unit": "ng/mL"},
      {"measurement": "Cmax", "setting": "[6]; [15]", "value": 75.3, "unit": "ng/mL"},
      {"measurement": "half-life", "setting": "[6]; both, human, plasma, po, t1/2, arithmetic mean ± SD, ertugliflozin 7.5-mg/metformin 1000-mg FDC tablet, single oral dose, healthy subjects, fed (high-fat breakfast)", "value": "11.2 ± 4.5", "unit": "h"},
      {"measurement": "Fed:Fasted GMR (90% CI) AUCinf", "setting": "[6]; [16]", "value": "93.8 (90.1–97.7) %"},
      {"measurement": "Fed:Fasted GMR (90% CI) Cmax", "setting": "[6]; [16]", "value": "59.4 (51.1–69.1) %"},
      {"measurement": "Decrease of Cmax in the fed state compared with the fasted state", "setting": "[7]; administered as monotherapy (15-mg tablet), based on adjusted GMR", "value": 29, "unit": "%"},
      {"measurement": "half-life", "setting": "[7]; both, human, plasma, po, 15 mg", "value": "11.5 ± 2.6", "unit": "h"},
      {"measurement": "AUC(0-inf)", "setting": "[7]; both, human, plasma, po, 15 mg, AUCinf, geometric mean (geometric %CV), ertugliflozin 15-mg tablet, single oral dose, healthy subjects, fasted", "value": 1330, "unit": "ng·h/mL"},
      {"measurement": "AUC(0-t)", "setting": "[7]; both, human, plasma, po, 15 mg, geometric mean (geometric %CV), ertugliflozin 15-mg tablet, single oral dose, healthy subjects, fasted", "value": 1310, "unit": "ng·h/mL"},
      {"measurement": "AUC(0-t)", "setting": "[7]; both, human, plasma, po, 15 mg, geometric mean (geometric %CV), ertugliflozin 15-mg tablet, single oral dose, healthy subjects, fed (high-fat breakfast)", "value": 1220, "unit": "ng·h/mL"},
      {"measurement": "Cmax", "setting": "[7]; both, human, plasma, po, 15 mg, Cmax, geometric mean (geometric %CV), ertugliflozin 15-mg tablet, single oral dose, healthy subjects, fasted", "value": 271, "unit": "ng/mL"},
      {"measurement": "Fed:Fasted GMR (90% CI) AUCinf", "setting": "[7]; [17]", "value": "91.7 (88.0–95.4) %"},
      {"measurement": "Fed:Fasted GMR (90% CI) Cmax", "setting": "[7]; [17]", "value": "70.7 (61.7–80.9) %"}
    ]},
    {"smiles": "CN(C)C(=N)N=C(N)N", "note": "[Metformin]", "values": [
      {"measurement": "Increase in Tmax, fed versus fasted", "setting": "[8]", "value": "approximately 35 minute"},
      {"measurement": "Lower AUC, fed versus fasted", "setting": "[8]", "value": 25, "unit": "%"},
      {"measurement": "Lower mean Cmax, fed versus fasted", "setting": "[8]", "value": 40, "unit": "%"},
      {"measurement": "Delay of Tmax, fed versus fasted", "setting": "[6]; administered as ertugliflozin/metformin FDC tablet", "value": 1.7, "unit": "h"},
      {"measurement": "Tmax", "setting": "[6]; both, human, plasma, po", "value": 2.3, "unit": "h"},
      {"measurement": "Cmax", "setting": "[6]; [13]", "value": "1520 ± 417", "unit": "ng/mL"},
      {"measurement": "Cmax", "setting": "[6]; [14]", "value": 2040, "unit": "ng/mL"},
      {"measurement": "Cmax", "setting": "[6]; [15]", "value": 1460, "unit": "ng/mL"},
      {"measurement": "Fed:Fasted GMR (90% CI) AUCinf", "setting": "[6]; [16]", "value": "92.8 (85.1–101.3) %"},
      {"measurement": "Fed:Fasted GMR (90% CI) Cmax", "setting": "[6]; [16]", "value": "70.7 (63.6–78.5) %"},
      {"measurement": "Tmax, median (range)", "setting": "[6]; ertugliflozin 7.5-mg/metformin 1000-mg FDC tablet, single oral dose, healthy subjects, plasma, fed (high-fat breakfast)", "value": "4.0 (0.5–8.0) h"}
    ]},
    {"smiles": "N[C@@H](CC(=O)N1CCn2c(nnc2C(F)(F)F)C1)Cc1cc(F)c(F)cc1F", "note": "[Sitagliptin]", "values": [
      {"measurement": "fed:fasted GMR for Cmax", "setting": "[9]; 90% CI 86%–103%", "value": 94, "unit": "%"},
      {"measurement": "fed:fasted GMR for AUCinf", "setting": "[9]; 90% CI 97%–111%", "value": 103, "unit": "%"},
      {"measurement": "AUC(0-inf)", "setting": "[5]; [11]", "value": 7.1, "unit": "µM·h"},
      {"measurement": "AUC(0-t)", "setting": "[5]; [10]", "value": 7.3, "unit": "µM·h"},
      {"measurement": "Tmax", "setting": "[5]; [12]", "value": 1.8, "unit": "h"},
      {"measurement": "half-life", "setting": "[5]; [12]", "value": "12.1 ± 1.6", "unit": "h"},
      {"measurement": "Fed:Fasted GMR (90% CI) AUCinf", "setting": "[5]", "value": "96.6 (94.0–99.4) %"},
      {"measurement": "Fed:Fasted GMR (90% CI) Cmax", "setting": "[5]", "value": "96.1 (82.4–112.1) %"},
      {"measurement": "Cmax", "setting": "[5]; read-out: Cmax, geometric mean (geometric %CV), fed (high-fat breakfast), 1.00 ng/mL = 2.46 nM", "value": 721, "unit": "nM"}
    ]}
  ]
}
